Assay: xn = mol fraction of the nth substance listed
Conditions: Gas, Buoyancy - hydrostatic balance with magnetic suspension - one sinker

C=C(F)C(F)(F)F [2,3,3,3-tetrafluoro-1-propene] + CCC
Conditions | mass density [kg/m3]
265.46 K, 101.2 kPa, x1 = 1 | 5.404
265.48 K, 207.2 kPa, x1 = 1 | 11.507
265.55 K, 106.5 kPa, x1 = 0.8116 | 5.018
265.56 K, 107.5 kPa, x1 = 0.583 | 4.254
265.57 K, 104 kPa, x1 = 0.0906 | 2.433
265.57 K, 181.7 kPa, x1 = 0.8116 | 8.775
265.57 K, 198.3 kPa, x1 = 0.583 | 8.052
265.57 K, 206.2 kPa, x1 = 0.0906 | 4.954
265.58 K, 299.3 kPa, x1 = 0.0906 | 7.374
265.59 K, 295.1 kPa, x1 = 0.583 | 12.343
265.6 K, 249 kPa, x1 = 0.8116 | 12.31
270.36 K, 101 kPa, x1 = 1 | 5.279
270.38 K, 164.6 kPa, x1 = 1 | 8.792
270.38 K, 250.3 kPa, x1 = 1 | 13.798
270.4 K, 103.2 kPa, x1 = 0.2546 | 2.918
270.41 K, 182.2 kPa, x1 = 0.2546 | 5.239
270.42 K, 267 kPa, x1 = 0.2546 | 7.839
270.44 K, 102.4 kPa, x1 = 0.0906 | 2.353
270.44 K, 194.1 kPa, x1 = 0.0906 | 4.555
270.44 K, 338.6 kPa, x1 = 0.0906 | 8.243
270.45 K, 102.6 kPa, x1 = 0.583 | 3.972
270.45 K, 215 kPa, x1 = 0.583 | 8.58
270.47 K, 349 kPa, x1 = 0.583 | 14.488
270.5 K, 105.1 kPa, x1 = 0.8116 | 4.852
270.5 K, 182.6 kPa, x1 = 0.8116 | 8.631
270.5 K, 286.6 kPa, x1 = 0.8116 | 14.015
275.39 K, 106.2 kPa, x1 = 1 | 5.448
275.4 K, 208.6 kPa, x1 = 1 | 11.064
275.41 K, 188.7 kPa, x1 = 0.2546 | 5.334
275.41 K, 306 kPa, x1 = 0.2546 | 8.898
275.42 K, 303.7 kPa, x1 = 1 | 16.657
275.43 K, 404.2 kPa, x1 = 0.2546 | 12.054
275.45 K, 102.2 kPa, x1 = 0.583 | 3.894
275.45 K, 198.4 kPa, x1 = 0.583 | 7.744
275.46 K, 103.9 kPa, x1 = 0.0906 | 2.338
275.46 K, 196 kPa, x1 = 0.0906 | 4.504
275.46 K, 282.9 kPa, x1 = 0.0906 | 6.633
275.47 K, 107.9 kPa, x1 = 0.8116 | 4.886
275.47 K, 211 kPa, x1 = 0.8116 | 9.844
275.47 K, 300.7 kPa, x1 = 0.583 | 12.066
275.47 K, 374.9 kPa, x1 = 0.0906 | 8.996
275.49 K, 325.2 kPa, x1 = 0.8116 | 15.724
275.49 K, 415.1 kPa, x1 = 0.583 | 17.223
280.28 K, 103.6 kPa, x1 = 1 | 5.208
280.29 K, 176.6 kPa, x1 = 1 | 9.076
280.29 K, 274 kPa, x1 = 1 | 14.527
280.29 K, 356.2 kPa, x1 = 1 | 19.43
280.31 K, 101.5 kPa, x1 = 0.2546 | 2.757
280.31 K, 195.7 kPa, x1 = 0.2546 | 5.424
280.31 K, 360.4 kPa, x1 = 0.2546 | 10.374
280.31 K, 476.4 kPa, x1 = 0.2546 | 14.119
280.32 K, 279.7 kPa, x1 = 0.2546 | 7.895
280.33 K, 202 kPa, x1 = 0.583 | 7.713
280.34 K, 102.8 kPa, x1 = 0.583 | 3.835
280.34 K, 300.9 kPa, x1 = 0.583 | 11.781
280.34 K, 401.2 kPa, x1 = 0.583 | 16.148
280.35 K, 481.2 kPa, x1 = 0.583 | 19.822
280.36 K, 103.6 kPa, x1 = 0.8116 | 4.599
280.36 K, 106.5 kPa, x1 = 0.0906 | 2.352
280.37 K, 190.7 kPa, x1 = 0.8116 | 8.666
280.37 K, 207.3 kPa, x1 = 0.0906 | 4.678
280.38 K, 294.7 kPa, x1 = 0.8116 | 13.792
280.39 K, 315.2 kPa, x1 = 0.0906 | 7.287
280.4 K, 369 kPa, x1 = 0.8116 | 17.665
280.4 K, 425 kPa, x1 = 0.0906 | 10.088
285.27 K, 258.8 kPa, x1 = 1 | 13.34
285.28 K, 104.7 kPa, x1 = 1 | 5.162
285.28 K, 164.2 kPa, x1 = 1 | 8.23
285.28 K, 358.5 kPa, x1 = 1 | 19.078
285.29 K, 306.8 kPa, x1 = 0.2546 | 8.517
285.29 K, 414.7 kPa, x1 = 0.2546 | 11.796
285.29 K, 520.3 kPa, x1 = 0.2546 | 15.183
285.3 K, 104 kPa, x1 = 0.2546 | 2.771
285.3 K, 204 kPa, x1 = 0.2546 | 5.541
285.32 K, 104.6 kPa, x1 = 0.583 | 3.829
285.32 K, 198.9 kPa, x1 = 0.583 | 7.432
285.32 K, 309.1 kPa, x1 = 0.583 | 11.855
285.32 K, 414.1 kPa, x1 = 0.583 | 16.308
285.33 K, 524.2 kPa, x1 = 0.583 | 21.282
285.35 K, 103.9 kPa, x1 = 0.0906 | 2.256
285.35 K, 107.3 kPa, x1 = 0.8116 | 4.677
285.35 K, 203.4 kPa, x1 = 0.8116 | 9.079
285.36 K, 205.6 kPa, x1 = 0.0906 | 4.552
285.37 K, 298.4 kPa, x1 = 0.0906 | 6.733
285.37 K, 311 kPa, x1 = 0.8116 | 14.287
285.38 K, 402.5 kPa, x1 = 0.0906 | 9.29
285.38 K, 413.6 kPa, x1 = 0.8116 | 19.58
285.39 K, 494.1 kPa, x1 = 0.0906 | 11.653
290.25 K, 583.7 kPa, x1 = 0.583 | 23.524
290.38 K, 102.2 kPa, x1 = 1 | 4.937
290.39 K, 184.5 kPa, x1 = 1 | 9.113
290.4 K, 203.9 kPa, x1 = 0.583 | 7.494
290.4 K, 308.8 kPa, x1 = 1 | 15.792
290.4 K, 421.2 kPa, x1 = 1 | 22.298
290.41 K, 103.5 kPa, x1 = 0.583 | 3.727
290.41 K, 300.6 kPa, x1 = 0.583 | 11.287
290.41 K, 403.8 kPa, x1 = 0.583 | 15.532
290.41 K, 496.6 kPa, x1 = 0.583 | 19.555
290.42 K, 102.2 kPa, x1 = 0.2546 | 2.673
290.42 K, 202.4 kPa, x1 = 0.2546 | 5.395
290.42 K, 297.9 kPa, x1 = 0.2546 | 8.09
290.42 K, 393.4 kPa, x1 = 0.2546 | 10.9
290.43 K, 490.8 kPa, x1 = 0.2546 | 13.893
290.44 K, 106.8 kPa, x1 = 0.8116 | 4.568
290.44 K, 199.7 kPa, x1 = 0.8116 | 8.728
290.44 K, 298.5 kPa, x1 = 0.8116 | 13.363
290.44 K, 586.4 kPa, x1 = 0.2546 | 16.977
290.46 K, 104.6 kPa, x1 = 0.0906 | 2.225
290.46 K, 208.6 kPa, x1 = 0.0906 | 4.52
290.46 K, 314.2 kPa, x1 = 0.0906 | 6.95
290.46 K, 380.2 kPa, x1 = 0.8116 | 17.392
290.46 K, 409.5 kPa, x1 = 0.0906 | 9.237
290.46 K, 465.4 kPa, x1 = 0.8116 | 21.81
290.46 K, 539.6 kPa, x1 = 0.0906 | 12.53
295.4 K, 101.7 kPa, x1 = 1 | 4.829
295.4 K, 196.9 kPa, x1 = 1 | 9.565
295.4 K, 400.6 kPa, x1 = 1 | 20.565
295.4 K, 600.7 kPa, x1 = 1 | 32.885
295.41 K, 305.3 kPa, x1 = 1 | 15.255
295.41 K, 510.2 kPa, x1 = 1 | 27.092
295.43 K, 213.4 kPa, x1 = 0.2546 | 5.607
295.44 K, 312 kPa, x1 = 0.2546 | 8.352
295.44 K, 420 kPa, x1 = 0.2546 | 11.485
295.44 K, 526.9 kPa, x1 = 0.2546 | 14.734
295.45 K, 511.2 kPa, x1 = 0.583 | 19.692
295.45 K, 638.2 kPa, x1 = 0.2546 | 18.298
295.46 K, 105.6 kPa, x1 = 0.583 | 3.727
295.46 K, 202.1 kPa, x1 = 0.583 | 7.273
295.46 K, 304.8 kPa, x1 = 0.583 | 11.205
295.46 K, 309.4 kPa, x1 = 0.0906 | 6.711
295.46 K, 410.8 kPa, x1 = 0.583 | 15.457
295.46 K, 411.3 kPa, x1 = 0.0906 | 9.102
295.47 K, 104.2 kPa, x1 = 0.0906 | 2.174
295.47 K, 209.6 kPa, x1 = 0.0906 | 4.463
295.47 K, 517.9 kPa, x1 = 0.0906 | 11.713
295.47 K, 624.6 kPa, x1 = 0.583 | 24.759
295.48 K, 105.6 kPa, x1 = 0.8116 | 4.43
295.48 K, 198.1 kPa, x1 = 0.8116 | 8.481
295.48 K, 304 kPa, x1 = 0.8116 | 13.338
295.48 K, 403.2 kPa, x1 = 0.8116 | 18.133
295.48 K, 629.5 kPa, x1 = 0.0906 | 14.594
295.5 K, 514.3 kPa, x1 = 0.8116 | 23.825
300.2 K, 668.8 kPa, x1 = 1 | 36.434
300.21 K, 108 kPa, x1 = 1 | 5.039
300.21 K, 218.9 kPa, x1 = 1 | 10.489
300.21 K, 324 kPa, x1 = 1 | 15.933
300.21 K, 439.4 kPa, x1 = 1 | 22.291
300.21 K, 545.8 kPa, x1 = 1 | 28.564
300.21 K, 702.5 kPa, x1 = 0.0906 | 16.204
300.23 K, 569.7 kPa, x1 = 0.8116 | 26.154
300.24 K, 599.9 kPa, x1 = 0.0906 | 13.531
300.24 K, 701 kPa, x1 = 0.583 | 27.648
300.25 K, 190.5 kPa, x1 = 0.0906 | 3.98
300.25 K, 392.5 kPa, x1 = 0.8116 | 17.228
300.25 K, 396.6 kPa, x1 = 0.0906 | 8.595
300.25 K, 489.8 kPa, x1 = 0.8116 | 22.015
300.25 K, 506.5 kPa, x1 = 0.0906 | 11.208
300.25 K, 600.3 kPa, x1 = 0.583 | 23.086
300.26 K, 102.6 kPa, x1 = 0.583 | 3.557
300.26 K, 104.5 kPa, x1 = 0.0906 | 2.152
300.26 K, 106.3 kPa, x1 = 0.8116 | 4.378
300.26 K, 200.3 kPa, x1 = 0.583 | 7.077
300.26 K, 298.9 kPa, x1 = 0.583 | 10.761
300.26 K, 300 kPa, x1 = 0.0906 | 6.389
300.26 K, 301.1 kPa, x1 = 0.8116 | 12.94
300.26 K, 506.5 kPa, x1 = 0.583 | 19.062
300.27 K, 198.3 kPa, x1 = 0.8116 | 8.334
300.27 K, 400.3 kPa, x1 = 0.583 | 14.716
